Laboratory results from patent US11800867B2, “Methods of repelling biting arthropods, reducing pathogen spread and treating arthropod infestation” (priority 2016, dated 2023).

Tests used:
[1] = tested on: female Anopheles quadrimaculatus mosquitoes; experiment: In vitro membrane feeder repellency assay, probing of treated collagen membranes (Example 2); type: in vivo; conditions: 20% DEET in ethanol, 25 μL on collagen membrane; twenty minutes; average ± SE, n = 5
Excerpt: (§1) A laboratory trial was required to evaluate the repellency of 1% Nootkatone against female Aedes aegypti, Culex quinquefasciatus, and Anopheles quadrimaculatus mosquitoes using an in vitro method.
(§2) Female adult laboratory reared Aedes aegypti, Culex quinquefasciatus, and Anopheles quadrimaculatus mosquitoes (susceptible) were obtained from Benzon Research in Carlisle, Pa. 250 mosquitoes were used per replicate (5 replicates per test, per species). Adult mosquitoes were 3-8 days old.
(§3) Nootkatone was diluted in ethanol and acetone (note that Nootkatone diluted in acetone was not tested against An. quadrimaculatus). A positive control consisting of 20% DEET in ethanol was prepared using stock solutions. Negative controls consisted of no treatment, and ethanol-only treatment.
(§4) The treatments were applied directly to prepared collagen membranes by pipetting 25 μL of the appropriate substance onto a membrane and spreading it evenly with the tip of the pipette.
(§5) Exposure container. A 30.5 cm×30.5 cm×30.5 cm rigid plastic frame supported by four, 4 cm high legs, with a sleeved entry on one side and a sliding door on the bottom.
(§6) Membrane feeder. Five wells (3 cm in diameter×8 mm in depth) in line on a hollow plastic block (6 cm wide×22 cm long×3 cm deep), which fits through the sliding door in the bottom of the exposure container. Hoses attached to each side of the block circulate heated water that is pumped from a water bath. The sliding door in the bottom of the exposure container covers and uncovers the wells in the membrane feeder, allowing mosquitoes to access the wells.
(§7) Test set-up. The membrane feeder was connected to a heated water bath, and warm water passed through the feeder via a circulating pump so that the wells were warmed to 89-95° F. Seventy-two (72) mg of ATP (disodium salt) were added to 26 mL of warmed citrated bovine blood, which was poured into the wells until they were completely full.
(§8) The collagen membranes were placed on vacuum greased wax paper for treatment. They were then treated as described above and left for five minutes to dry. After they dried, the membranes were placed over each of the wells (using vacuum grease as an adhesive), completely covering the blood.
(§9) Exposure to mosquitoes. The mosquitoes were released into the exposure container just prior to exposure to the membranes. The exposure container was then placed on the membrane feeder and the sliding door opened, allowing the mosquitoes to access the wells. The number of mosquitoes probing each membrane was recorded every two minutes for twenty minutes.
(§10) The above procedures were repeated until five replicates were completed. A new batch of 250 female mosquitoes and fresh blood were used for each replicate, and the wells were cleaned in between replicates. The position of the treatments was rotated for each replicate, so that each treatment was tested on each of the five wells.
(§11) Percent repellency was calculated for each replicate using the total number of probes with the following formula:
(§12) [formula] • where C=the total number of probes on the untreated well • and T=the total number of probes on the treated well
(§13) Average percent repellency and standard error were then calculated across all five replicates. Shapiro-Wilks tests were conducted to determine the normality of the data, based on total number of probes per replicate. Depending on normality, student t-tests (with concurrent F-tests for variance) or Mann-Whitney tests were then used to determine significance between the treatments.

[2] = tested on: female Aedes aegypti mosquitoes; experiment: as above; type: in vivo; conditions: 20% DEET in ethanol, 25 μL on collagen membrane; twenty minutes; average ± SE, n = 5
Excerpt: as §1, §2, §3, §4, §5, §6, §7, §8, §9, §10, §11, §12, §13

[3] = tested on: female Culex quinquefasciatus mosquitoes; experiment: as above; type: in vivo; conditions: 20% DEET in ethanol, 25 μL on collagen membrane; twenty minutes; average ± SE, n = 5
Excerpt: as §1, §2, §3, §4, §5, §6, §7, §8, §9, §10, §11, §12, §13

[4] = humans; compound found in bergamot and citrus essential oils; cited from earlier work

| SMILES | Percent repellency [1] [%] | Percent repellency [2] [%] | Percent repellency [3] [%] | Phototoxicity [4] |
| --- | --- | --- | --- | --- |
| CCN(CC)C(=O)c1cccc(C)c1 [DEET, N,N-Diethyl-meta-toluamide, reference compound] | 100.0 ± 0.0 | 99.4 ± 0.6 | 95.9 ± 4.1 |  |
| COc1c2ccoc2cc2oc(=O)ccc12 [Bergapten, 5-methoxypsoralen] |  |  |  | causes phototoxicity in humans |
